Target: human Edg-2 receptor (LPA1 receptor) (Homo sapiens, UniProt Q92633)
Test: Edg-2 receptor inhibition by FLIPR calcium fluorescence measurement (LPA-mediated calcium liberation)
Format: cell-based
Details: CHO cells stably overexpressing human Edg-2 receptor; LPA 18:1 100 nM; fluo-4 fluorescence; triplicate; read-out: Inhibitory concentrations IC50 for inhibition of the Edg-2 receptor
Description: A) Determination of Edg-2 Receptor Inhibition by Fluorescence Imaging Plate Reader (FLIPR) Measurements
The inhibition of the Edg-2 receptor (LPA1 receptor) by the compounds of the invention was quantified by the inhibitory effect on the LPA-mediated calcium liberation in a cell-based calcium fluorescence assay by use of Chinese hamster ovarian (CHO) cells in which the human Edg-2 receptor was stably overexpressed (FIp-In system, Invitrogen). […] Changes in intracellular calcium were determined by fluorescence measurement with the calcium-sensitive dye fluo-4 (Invitrogen) in a fluorescence imaging plate reader (FLIPR, […]).
CHO cells stably overexpressing the human Edg-2 receptor were seeded (40.000 per well) in black clear-bottomed poly-D-lysine-coated 96 well plates (Becton Dickinson, Biocoat cellware) approximately 18-24 h prior to the experiments. Cells were grown in an incubator at 37° C., 5% carbon dioxide and 95% humidity in cell culture media based on F-12 glutamax media (Gibco, #31765) supplemented with 1% (vol/vol) penicilline/streptomycine (PAN, #P06-07100), 10% (vol/vol) fetal calf serum (FCS, PAA, #A15-151) and hygromycin B (Invitrogen, #10687-010) 300 mg/l (final concentrations).
Prior to the FLIPR experiment, cells were loaded with fluo-4 acetoxymethyl ester (fluo-4 AM, Invitrogen, #F14202) for 60 min in an incubator at 37° C., 5% carbon dioxide and 95% humidity in dye-loading buffer consisting of Hanks' Balanced Salt Solution (HBSS, Invitrogen, #14065049) supplemented with fluo-4 AM at 2 μM (all data given for final concentration), Pluronic® F-127 0.05% (vol/vol) (Invitrogen, #P-3000 MP), HEPES 20 mM (Gibco, #15630), probenecid 2.5 mM (Sigma, #P-8761) and bovine serum albumin 0.05% (BSA, Sigma, #A-6003), adjusted to pH 7.5 with sodium hydroxide. During cell loading, fluo-4 AM is cleaved by intracellular esterase resulting in trapping of the dye fluo-4 within the cells. Loading was terminated by washing of the cells in a cell washer (Tecan Power washer) three times with the buffer specified afore but without fluo-4 AM and BSA. This latter buffer was also used as the buffer in the subsequent cell fluorescence measurements.
The dye-loaded and washed cells were pre-incubated for approximately 5 min with various concentrations of the test compound added as a solution in DMSO (0.3% vol/vol maximum final concentration of DMSO), or with DMSO in the respective concentration only (positive control). Subsequent addition of LPA (18:1, 1-oleoyl-sn-glycerol 3-phosphate; 100 nM final concentration) leads to liberation of intracellular calcium from internal stores resulting in a large transient increase of the fluo-4 fluorescence signal which was monitored over approximately 3 min. The percent inhibition caused by the test compound was determined from the maximum fluorescence response after LPA addition to cells pre-incubated with the compound as compared to the maximum fluorescence response after LPA addition to cells pre-incubated with DMSO only. All fluorescence values were corrected for the baseline fluorescence values obtained with cells which were pre-incubated with DMSO only and were not treated with LPA (baseline control). All measurements were performed in triplicate. From the percent inhibitions the inhibitory concentration IC50 was determined.

human Edg-2 receptor (LPA1 receptor), sequence (Q92633 whole entry): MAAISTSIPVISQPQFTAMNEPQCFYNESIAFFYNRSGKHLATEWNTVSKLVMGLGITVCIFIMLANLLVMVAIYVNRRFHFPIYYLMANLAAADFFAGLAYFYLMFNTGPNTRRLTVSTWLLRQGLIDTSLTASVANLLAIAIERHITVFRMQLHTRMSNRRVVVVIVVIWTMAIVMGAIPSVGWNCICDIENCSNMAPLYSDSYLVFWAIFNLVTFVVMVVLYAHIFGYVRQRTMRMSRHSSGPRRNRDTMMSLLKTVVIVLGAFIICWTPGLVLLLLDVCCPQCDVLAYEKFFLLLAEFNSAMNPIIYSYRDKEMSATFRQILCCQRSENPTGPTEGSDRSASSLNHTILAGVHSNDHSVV

Question: Which IC50 does the source give for `COc1c(OCCc2cccc(C)c2)cc(C(=O)NC2(C(=O)O)Cc3ccccc3C2)cc1[N+](=O)[O-]` [Example 107, 2-[4-Methoxy-3-nitro-5-(2-m-tolyl-ethoxy)-benzoylamino]-indane-2-carboxylic acid] here?
Answer: 1 to 30 µM

Question: How did the IC50 turn out when `COc1ccc(C(=O)N(C)C2(C(=O)O)Cc3ccccc3C2)cc1OCCc1cccc(C)c1` [Example 108, 2-{[4-Methoxy-3-(2-m-tolyl-ethoxy)-benzoyl]-methyl-amino}-indane-2-carboxylic acid] was run?
Answer: 0.1 to 1 µM

Question: For `COc1ccc(C(=O)NC2(C(=O)O)Cc3ccccc3C2)cc1OS(=O)(=O)c1ccccc1` [Example 109, 2-(3-Benzenesulfonyloxy-4-methoxy-benzoylamino)-indane-2-carboxylic acid], which IC50 is on record?
Answer: 1 to 30 µM

Question: How did the IC50 turn out when `COc1ccc(C(=O)NC2(C(=O)O)Cc3ccccc3C2)cc1OS(=O)(=O)c1ccc(C)cc1` [Example 110] was run?
Answer: 1 to 30 µM

Question: `COc1ccc(C(=O)NC2(C(=O)O)Cc3ccccc3C2)cc1OS(=O)(=O)c1cccc(C)c1` [Example 111, 2-[3-(toluene-3-sulfonyloxy)-4-methoxy-benzoylamino]-indane-2-carboxylic acid] was tested. Which IC50 did it give?
Answer: 1 to 30 µM

Question: How did the IC50 turn out when `COc1ccc(C(=O)NC2(C(=O)O)Cc3ccccc3C2)cc1OS(=O)(=O)c1ccccc1C` [Example 112] was run?
Answer: 1 to 30 µM

Question: For `COc1ccc(C(=O)NC2(C(=O)O)Cc3ccccc3C2)cc1C(=O)COc1cccc(C)c1` [Example 113, 2-[4-Methoxy-3-(2-m-tolyloxy-acetyl)-benzoylamino]-indane-2-carboxylic acid], which IC50 is on record?
Answer: 1 to 30 µM

Question: For `COc1ccc(C(=O)NC2(C(=O)O)Cc3ccccc3C2)cc1C(O)COc1cccc(C)c1` (stereo not shown) [Example 114, 2-[3-(1-Hydroxy-2-m-tolyloxy-ethyl)-4-methoxy-benzoylamino]-indane-2-carboxylic acid], which IC50 is on record?
Answer: 1 to 30 µM

Question: How did the IC50 turn out when `COc1ccc(C(=O)NC2(C(=O)O)Cc3ccccc3C2)cc1CCOc1cccc(C)c1` [Example 115, 2-[4-Methoxy-3-(2-m-tolyloxy-ethyl)-benzoylamino]-indane-2-carboxylic acid] was run?
Answer: 1 to 30 µM

Question: How did the IC50 turn out when `COc1ccc(C(=O)NC2(C(=O)O)Cc3ccccc3C2)cc1CCCc1cccc(C)c1` [Example 116, 2-[4-Methoxy-3-(3-m-tolyl-propyl)-benzoylamino]-indane-2-carboxylic acid] was run?
Answer: < 0.1 µM

Question: For `COc1ccc(C(=O)NC2(C(=O)O)Cc3ccccc3C2)cc1NC(=O)Cc1ccccc1` [Example 117, 2-(4-Methoxy-3-phenylacetylamino-benzoylamino)-indane-2-carboxylic acid], which IC50 is on record?
Answer: 0.1 to 1 µM

Question: With `COc1ccc(C(=O)NC2(C(=O)O)Cc3ccccc3C2)cc1NC(=O)Cc1cccc(Br)c1` [Example 118] as the compound, how does the IC50 read?
Answer: 1 to 30 µM

Question: How did the IC50 turn out when `COc1ccc(C(=O)NC2(C(=O)O)Cc3ccccc3C2)cc1NC(=O)Cc1cccc(Cl)c1` [Example 119] was run?
Answer: 1 to 30 µM

Question: `COc1ccc(C(=O)NC2(C(=O)O)Cc3ccccc3C2)cc1NC(=O)c1cccc(F)c1` [Example 120, 2-[3-[3-fluoro-benzoylamino)-4-methoxy-benzoylamino)-indane-2-carboxylic acid] was tested. Which IC50 did it give?
Answer: 1 to 30 µM

Question: For `COc1ccc(C(=O)NC2(C(=O)O)Cc3ccccc3C2)cc1NCc1ccc(F)cc1` [Example 121, 2-[3-(4-Fluoro-benzylamino)-4-methoxy-benzoylamino]-indane-2-carboxylic acid], which IC50 is on record?
Answer: 1 to 30 µM

Question: `COc1ccc(C(=O)NC2(C(=O)O)Cc3ccccc3C2)cc1NCCc1ccccc1` [Example 122, 2-[3-[2-phenyl-ethylamino)-4-methoxy-benzoylamino)-indane-2-carboxylic acid] was tested. Which IC50 did it give?
Answer: 0.1 to 1 µM

Question: For `COc1ccc(C(=O)NC2(C(=O)O)Cc3ccccc3C2)cc1NCc1cccc(Cl)c1` [Example 123], which IC50 is on record?
Answer: 1 to 30 µM

Question: For `COc1ccc(C(=O)NC2(C(=O)O)Cc3ccccc3C2)cc1NCC(C)c1ccccc1` (stereo not shown) [Example 124], which IC50 is on record?
Answer: 0.1 to 1 µM

Question: For `COc1ccc(C(=O)NC2(C(=O)O)Cc3ccccc3C2)cc1OCc1cccc(C)c1` [Example 126], which IC50 is on record?
Answer: 1 to 30 µM

Question: With `COc1ccc(C(=O)NC2(C(=O)O)Cc3ccccc3C2)cc1OCCc1cccc(C(F)(F)F)c1` [Example 127, 2-{4-methoxy-3-[2-(3-trifluoromethyl-phenyl)-ethoxy]-benzoylamino}-indane-2-carboxylic acid] as the compound, how does the IC50 read?
Answer: < 0.1 µM

Question: How did the IC50 turn out when `O=C(NC1(C(=O)O)Cc2ccccc2C1)c1ccc(Cl)c(OCCc2cccc(C(F)(F)F)c2)c1` [Example 128] was run?
Answer: 0.1 to 1 µM

Question: How did the IC50 turn out when `Cc1cccc(CCOc2cc(C(=O)NC3(C(=O)O)Cc4ccccc4C3)ccc2C)c1` [Example 129] was run?
Answer: 0.1 to 1 µM

Question: `COc1ccc(C(=O)NC2(C(=O)O)Cc3ccccc3C2)cc1OCCc1ccccc1` [Example 130] was tested. Which IC50 did it give?
Answer: < 0.1 µM

Question: With `COc1ccc(C(=O)NC2(C(=O)O)Cc3ccccc3C2)cc1OCCc1cccc(F)c1` [Example 131] as the compound, how does the IC50 read?
Answer: < 0.1 µM

Question: Which IC50 does the source give for `COc1ccc(C(=O)NC2(C(=O)O)Cc3ccccc3C2)cc1OCCc1cccc(Cl)c1` [Example 132] here?
Answer: < 0.1 µM

Question: Which IC50 does the source give for `COc1cccc(CCOc2cc(C(=O)NC3(C(=O)O)Cc4ccccc4C3)ccc2OC)c1` [Example 133] here?
Answer: 0.1 to 1 µM

Question: Which IC50 does the source give for `COc1ccc(C(=O)NC2(C(=O)O)Cc3ccccc3C2)cc1OCCc1ccccc1C` [Example 134] here?
Answer: 1 to 30 µM

Question: For `COc1ccc(C(=O)NC2(C(=O)O)Cc3ccccc3C2)cc1OCCc1ccc(C)cc1` [Example 135], which IC50 is on record?
Answer: 1 to 30 µM

Question: With `COc1ccc(C(=O)NC2(C(=O)O)Cc3ccccc3C2)cc1OCCc1ccc(F)cc1` [Example 136] as the compound, how does the IC50 read?
Answer: 1 to 30 µM

Question: For `COc1ccc(CCOc2cc(C(=O)NC3(C(=O)O)Cc4ccccc4C3)ccc2OC)cc1` [Example 137], which IC50 is on record?
Answer: 1 to 30 µM

Question: With `COc1ccccc1CCOc1cc(C(=O)NC2(C(=O)O)Cc3ccccc3C2)ccc1OC` [Example 138] as the compound, how does the IC50 read?
Answer: 1 to 30 µM

Question: `COc1ccc(C(=O)NC2(C(=O)O)Cc3ccccc3C2)cc1OCCc1ccccc1F` [Example 139] was tested. Which IC50 did it give?
Answer: 0.1 to 1 µM

Question: `COc1ccc(C(=O)NC2(C(=O)O)Cc3ccccc3C2)cc1OCCc1cc(C)ccc1C` [Example 140] was tested. Which IC50 did it give?
Answer: 1 to 30 µM

Question: For `Cc1cccc(CCOc2cccc(C(=O)NC3(C(=O)O)Cc4ccccc4C3)c2)c1` [Example 141], which IC50 is on record?
Answer: 1 to 30 µM

Question: With `COc1ccc(C(=O)NC2(C(=O)O)Cc3ccccc3C2)cc1OC(C)Cc1ccccc1` (stereo not shown) [Example 142] as the compound, how does the IC50 read?
Answer: 1 to 30 µM

Question: `COc1ccc(C(=O)NC2(C(=O)O)Cc3ccccc3C2)cc1OCCc1cccc(Br)c1` [Example 143] was tested. Which IC50 did it give?
Answer: < 0.1 µM

Question: For `COc1ccc(C(=O)NC2(C(=O)O)Cc3ccccc3C2)cc1OCC(C)c1ccccc1` (stereo not shown) [Example 144], which IC50 is on record?
Answer: < 0.1 µM

Question: With `Cc1cccc(CCOc2cc(C(=O)NC3(C(=O)O)Cc4ccccc4C3)ccc2F)c1` [Example 145] as the compound, how does the IC50 read?
Answer: 0.1 to 1 µM

Question: Which IC50 does the source give for `COc1ccc(C(=O)NC2(C(=O)O)Cc3ccccc3C2)cc1OCCc1ccsc1` [Example 146] here?
Answer: 0.1 to 1 µM

Question: For `COc1ccc(C(=O)NC2(C(=O)O)Cc3ccccc3C2)cc1OCCc1cccs1` [Example 147], which IC50 is on record?
Answer: 0.1 to 1 µM

Question: How did the IC50 turn out when `COc1ccc(C(=O)NC2(C(=O)O)Cc3ccccc3C2)cc1OCCc1ccccn1` [Example 148] was run?
Answer: 1 to 30 µM

Question: For `COc1ccc(C(=O)NC2(C(=O)O)Cc3ccccc3C2)cc1OCCc1ccccc1Cl` [Example 149], which IC50 is on record?
Answer: < 0.1 µM

Question: `COc1ccc(C(=O)NC2(C(=O)O)Cc3ccccc3C2)cc1OCCC1CCCC1` [Example 150] was tested. Which IC50 did it give?
Answer: 1 to 30 µM

Question: With `COc1ccc(C(=O)NC2(C(=O)O)Cc3ccccc3C2)cc1OCCCc1ccccc1` [Example 151] as the compound, how does the IC50 read?
Answer: 1 to 30 µM

Question: For `COc1ccc(C(=O)NC2(C(=O)O)Cc3ccccc3C2)cc1OCCc1c(F)cccc1Cl` [Example 152], which IC50 is on record?
Answer: < 0.1 µM

Question: How did the IC50 turn out when `COc1ccc(C(=O)NC2(C(=O)O)Cc3ccccc3C2)cc1OCCc1cccc(Cl)c1F` [Example 153] was run?
Answer: 0.1 to 1 µM

Question: Which IC50 does the source give for `COc1ccc(C(=O)NC2(C(=O)O)Cc3ccccc3C2)cc1OCCc1cc(C(F)(F)F)ccc1F` [Example 154] here?
Answer: < 0.1 µM

Question: How did the IC50 turn out when `COc1ccc(C(=O)NC2(C(=O)O)Cc3ccccc3C2)cc1OCCc1cccc(C(F)(F)F)c1F` [Example 155] was run?
Answer: 1 to 30 µM

Question: With `COc1ccc(C(=O)NC2(C(=O)O)Cc3ccc(Br)cc3C2)cc1OCCc1cccc(C)c1` (stereo not shown) [Example 156, 5-Bromo-2-[4-methoxy-3-(2-m-tolyl-ethoxy)-benzoylamino]-indane-2-carboxylic acid] as the compound, how does the IC50 read?
Answer: < 0.1 µM

Source: US8802720B2, “Acylamino-substituted fused cyclopentanecarboxylic acid derivatives and their use as pharmaceuticals” (SANOFI, priority 2008, dated 2014)
